Test results from patent US20100292266A1, “Oxazolyl Piperidine Modulators of Fatty Acid Amide Hydrolase” (priority 2006, published 2010).

Columns and labels:
Rat FAAH = target: T1, Rat FAAH (Rattus norvegicus, UniProt P97612); test: Assay Method 2: FAAH assay, 3H-anandamide hydrolysis in cell homogenate; type: biochemical; conditions: transfected SK-N-MC cell homogenate, 80 nM 3H-AEA, 1 h rt, > = solubility limit or highest concentration tested
T1 construct: expressed in transfected cells
T1 sequence (P97612 1-579): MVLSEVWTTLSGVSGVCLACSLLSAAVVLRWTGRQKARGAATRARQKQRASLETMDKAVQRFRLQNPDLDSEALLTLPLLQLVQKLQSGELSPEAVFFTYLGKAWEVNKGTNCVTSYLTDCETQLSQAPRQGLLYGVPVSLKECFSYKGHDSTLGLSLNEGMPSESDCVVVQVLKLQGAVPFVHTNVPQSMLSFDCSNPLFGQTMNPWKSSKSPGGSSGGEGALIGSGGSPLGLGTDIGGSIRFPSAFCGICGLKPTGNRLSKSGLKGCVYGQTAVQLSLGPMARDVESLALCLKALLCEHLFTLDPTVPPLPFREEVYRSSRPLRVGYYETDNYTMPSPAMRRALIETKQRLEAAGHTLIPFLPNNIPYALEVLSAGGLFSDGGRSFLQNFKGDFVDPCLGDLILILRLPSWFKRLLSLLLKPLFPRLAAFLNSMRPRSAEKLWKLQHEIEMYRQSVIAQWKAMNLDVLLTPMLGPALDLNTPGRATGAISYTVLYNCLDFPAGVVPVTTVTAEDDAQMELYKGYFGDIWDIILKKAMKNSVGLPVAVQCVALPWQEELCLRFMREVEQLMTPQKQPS
Protocol: A. Transfection of Cells with Rat FAAH
(§1) A 10-cm tissue culture dish with a confluent monolayer of SK-N-MC cells was split 2 days (d) prior to transfection. Using sterile technique, the media was removed and the cells were detached from the dish by the addition of trypsin. One fifth of the cells were then placed onto a new 10-cm dish. Cells were grown in a 37° C. incubator with 5% CO2 in Minimal Essential Media Eagle with 10% Fetal Bovine Serum. After 2 d, cells were approximately 80% confluent. These cells were removed from the dish with trypsin and pelleted in a clinical centrifuge. The pellet was re-suspended in 400 μL complete media and transferred to an electroporation cuvette with a 0.4 cm gap between the electrodes. Supercoiled rat FAAH cDNA (1 μg) was added to the cells and mixed. The voltage for the electroporation was set at 0.25 kV, and the capacitance was set at 960 μF. After electroporation, the cells were diluted into complete media (10 mL) and plated onto four 10-cm dishes. Because of the variability in the efficiency of electroporation, four different concentrations of cells were plated. The ratios used were 1:20, 1:10, and 1:5, with the remainder of the cells being added to the fourth dish. The cells were allowed to recover for 24 h before adding the selection media (complete media with 600 μg/mL G418). After 10 d, dishes were analyzed for surviving colonies of cells. Dishes with well-isolated colonies were used. Cells from individual colonies were isolated and tested.
(§2) The assay mixture consisted of 50 μL of the cell homogenate, 10 μL of the test compound, and 40 μL of anandamide [1-^3H-ethanolamine] (^3H-AEA, Perkin-Elmer, 10.3 Ci/mmol), which was added last, for a final tracer concentration of 80 nM. The reaction mixture was incubated at it for 1 h. During the incubation, 96-well Multiscreen filter plates (catalog number MAFCNOB50; Millipore, Bedford, Mass., USA) were loaded with 25 μL of activated charcoal (Multiscreen column loader, catalog number MACL09625, Millipore) and washed once with 100 μL of MeOH. Also during the incubation, 96-well DYNEX MicroLite plates (catalog number NL510410) were loaded with 100 μL of MicroScint40 (catalog number 6013641, Packard Bioscience, Meriden, Conn., USA). After the 1 h incubation, 60 μL of the reaction mixture were transferred to the charcoal plates, which were then assembled on top of the DYNEX plates using Centrifuge Alignment Frames (catalog number MACF09604, Millipore). The unbound labeled ethanolamine . was centrifuged through to the bottom plate (5 min at 2000 rpm), which was preloaded with the scintillant, as described above. The plates were sealed and left at rt for 1 h before counting on a Hewlett Packard TopCount.
(§3) Where activity is shown as greater than (>) a particular value, the value is the solubility limit of the compound in the assay medium or the highest concentration tested in the assay.

FAAH = target: T2, FAAH (Homo sapiens, UniProt O00519); test: Assay Method 1: FAAH assay, 3H-anandamide hydrolysis in cell homogenate; type: biochemical; parameters: expressed in transfected cells; conditions: T84 or transfected SK-N-MC cell homogenate, 80 nM 3H-AEA, 1 h rt, > = solubility limit or highest concentration tested
T2 sequence (O00519 1-579): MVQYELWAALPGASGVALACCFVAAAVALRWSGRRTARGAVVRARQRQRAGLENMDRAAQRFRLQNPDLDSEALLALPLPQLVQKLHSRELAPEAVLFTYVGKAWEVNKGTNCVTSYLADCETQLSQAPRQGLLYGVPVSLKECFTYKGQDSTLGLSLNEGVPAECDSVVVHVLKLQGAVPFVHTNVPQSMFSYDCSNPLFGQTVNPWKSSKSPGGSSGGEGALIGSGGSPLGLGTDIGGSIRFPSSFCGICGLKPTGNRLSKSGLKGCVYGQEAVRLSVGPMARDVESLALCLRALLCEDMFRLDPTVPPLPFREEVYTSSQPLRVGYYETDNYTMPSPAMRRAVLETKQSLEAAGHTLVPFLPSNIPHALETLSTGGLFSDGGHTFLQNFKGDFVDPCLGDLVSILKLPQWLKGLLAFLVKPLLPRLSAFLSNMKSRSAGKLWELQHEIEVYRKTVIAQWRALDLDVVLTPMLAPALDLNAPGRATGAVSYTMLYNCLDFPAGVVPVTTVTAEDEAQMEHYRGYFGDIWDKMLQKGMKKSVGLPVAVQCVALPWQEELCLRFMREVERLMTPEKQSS
Protocol: A. Transfection of Cells with Human FAAH
as §1, with “Supercoiled human” for “Supercoiled rat”
as §2, with “at rt” for “at it”, “ethanolamine” for “ethanolamine .”
as §3

Row | SMILES | IC50 (Rat FAAH) [nM] | IC50 (FAAH) [nM]
1 | O=C(c1ncco1)C1CCN(Cc2cccc(OC3CCCCC3)c2)CC1 [Example 22, [1-(3-Cyclohexyloxy-benzyl)-piperidin-4-yl]-oxazol-2-yl-methanone] | 790 | 12
2 | COc1ccc2cc(CN3CCC(C(=O)c4ncco4)CC3)ccc2c1 [Example 46, [1-(6-Methoxy-naphthalen-2-ylmethyl)-piperidin-4-yl]-oxazol-2-yl-methanone] | 219 | 260
3 | O=C(c1ncco1)C1CCN(Cc2ccc3c(c2)OC(F)(F)O3)CC1 [Example 71, [1-(2,2-Difluoro-benzo[1,3]dioxol-5-ylmethyl)-piperidin-4-yl]-oxazol-2-yl-methanone] | 24 | 27
4 | O=C(c1ncco1)C1CCN(Cc2nc3ccccc3cc2Cl)CC1 [Example 80, [1-(3-Chloro-quinolin-2-ylmethyl)-piperidin-4-yl]-oxazol-2-yl-methanone] | 70 | 16
5 | O=C(c1ncco1)C1CCN(C(=O)CCc2ccccc2)CC1 [Example 14, 1-[4-(Oxazole-2-carbonyl)-piperidin-1-yl]-3-phenyl-propan-1-one] | 9000 | 1600
6 | O=C(c1ncco1)C1CCN(Cc2ccc(Br)c(Br)c2)CC1 [Example 87, [1-(3,4-Dibromo-benzyl)-piperidin-4-yl]-oxazol-2-yl-methanone] | 2 | 2
7 | O=C(c1ncco1)C1CCN(Cc2ccc3cccc(Cl)c3n2)CC1 [Example 75, [1-(8-Chloro-quinolin-2-ylmethyl)-piperidin-4-yl]-oxazol-2-yl-methanone] | 4 | 4
8 | O=C(c1ncco1)C1CCN(Cc2ccc3cc(Cl)ccc3n2)CC1 [Example 77, [1-(6-Chloro-quinolin-2-ylmethyl)-piperidin-4-yl]-oxazol-2-yl-methanone] | 22 | 7
9 | O=C(c1ncco1)C1CCN(Cc2ccc(Oc3ccccc3)cc2)CC1 [Example 57, Oxazol-2-yl-[1-(4-phenoxy-benzyl)-piperidin-4-yl]-methanone] | 532 | 210
10 | O=C(c1ncco1)C1CCN(S(=O)(=O)c2ccc3ccccc3c2)CC1 [Example 1, [1-(Naphthalene-2-sulfonyl)-piperidin-4-yl]-oxazol-2-yl-methanone] | 1000 | 100
11 | Cn1ccc2ccc(CN3CCC(C(=O)c4ncco4)CC3)cc21 [Example 40, [1-(1-Methyl-1H-indol-6-ylmethyl)-piperidin-4-yl]-oxazol-2-yl-methanone] | 385 | 94

The next lines start with the values.

Row | IC50 (Rat FAAH) [nM] | IC50 (FAAH) [nM] | SMILES
12 | 38 | 46 | CN(C)c1nc2ccccc2cc1CN1CCC(C(=O)c2ncco2)CC1 [Example 72, [1-(2-Dimethylamino-quinolin-3-ylmethyl)-piperidin-4-yl]-oxazol-2-yl-methanone]
13 | 4 | 2 | Cc1cccc2cc(CN3CCC(C(=O)c4ncco4)CC3)c(Cl)nc12 [Example 73, [1-(2-Chloro-8-methyl-quinolin-3-ylmethyl)-piperidin-4-yl]-oxazol-2-yl-methanone]
14 | 300 | 78 | O=C(c1ncco1)C1CCN(Cc2cccc(Cl)c2)CC1 [Example 34, [1-(3-Chloro-benzyl)-piperidin-4-yl]-oxazol-2-yl-methanone]
15 | 200 | 35 | O=C(c1ncco1)C1CCN(Cc2cccc(Br)c2)CC1 [Example 52, [1-(3-Bromo-benzyl)-piperidin-4-yl]-oxazol-2-yl-methanone]
16 | 43 | 18 | O=C(c1ncco1)C1CCN(Cc2cnc3ccccc3c2)CC1 [Example 85, Oxazol-2-yl-(1-quinolin-3-ylmethyl-piperidin-4-yl)-methanone]
17 | 600 | 175 | Cc1ccccc1CN1CCC(C(=O)c2ncco2)CC1 [Example 66, [1-(2-Methyl-benzyl)-piperidin-4-yl]-oxazol-2-yl-methanone]
18 | 40 | 19 | O=C(c1ncco1)C1CCN(Cc2ccc(Cl)cc2)CC1 [Example 35, [1-(4-Chloro-benzyl)-piperidin-4-yl]-oxazol-2-yl-methanone]
19 | 7 | 4 | O=C(c1ncco1)C1CCN(Cc2ccc3ccccc3c2O)CC1 [Example 47, [1-(1-Hydroxy-naphthalen-2-ylmethyl)-piperidin-4-yl]-oxazol-2-yl-methanone]
20 | 75 | 11 | O=C(c1ncco1)C1CCN(Cc2ccc(Br)cc2F)CC1 [Example 27, [1-(4-Bromo-2-fluoro-benzyl)-piperidin-4-yl]-oxazol-2-yl-methanone]
